Results taken from US20070265269A1, “Water Soluble Esters of [N-(4-Amino-2-Butynyl)] with Anticancer Activity” (priority 2004, published 2007).

How the values were obtained:
[1] = system: Fibroblast (Flow 4000, lung fibroblasts); experiment: toxicity on normal cells, tetrazolium-based proliferation assay (EZ4U kit); assay type: cell-based; conditions: for % Inhibition of growth: concentration of 1:400, normal cells, Flow 4000 lung fibroblasts, 4 days incubation; for toxicity to fibroblasts: result in words
Experimental: Cells were distributed to the wells of 96 well microtiter plates (10000 cells/well) in tissue culture medium (RPMI-1640 supplemented with 10% fetal bovine serum and 4 mM glutamine) and medium added for controls. Test compounds were added in the reported dilution steps and the plates incubated for 4 days under tissue culture conditions (37° C., 5% CO2).
(§1) Following incubation proliferation was measured using a tetrazolium-based assay (EZ4U kit, Biomedica, Vienna, Austria). Optical densities (OD) of the individual wells was determined with the help of an ELISA-Reader (all values done in triplicate) and the values obtained in medium controls set to 100% (OD490nm=0.5-1.5).
In addition the toxicity of a number of the esters of the invention have been tested on normal cells, Fibroblast (Flow 4000, lung fibroblasts).

[2] = system: panel of human tumour cell lines; experiment: anti-cancer activity, tetrazolium-based proliferation assay (EZ4U kit) in a panel of tumour cell lines; conditions: result in words
Experimental: For the following test the following cell lines have been used:
Cell lines. Except indicated otherwise all cell lines were obtained from the American Type Culture Collection (ATCC, Rockville, Md.) and grown to confluent monolayers in RPMI-1640 bicarbonate medium (Seromed, Berlin, Germany) in a humidified incubator (5% CO2, 37° C.). Cells were checked for mycoplasma contamination. The medium was supplemented with 10% heat-inactivated fetal bovine serum (Seromed) and 4 mM glutamine. The cells were subcultured by trypsination (0.03% trypsin containing 0.02% EDTA, three times a week). Cell numbers were counted using a TOA Sysmex microcellcounter (TOA, Tokyo, Japan).
Chemicals and solutions. Unless otherwise mentioned, all chemicals were obtained from Sigma (St. Louis, Mo.). Compounds to be tested were used as supplied. CHP was used as 5 mg/ml stock solution in PBS (phosphate buffered saline, Dulbecco) and aliquots were stored frozen at −20° C. Related compounds were used as 2 mg/ml stock solution and stored frozen at −20° C. […]
as §1, with “(OD490nm=0.5-1.5). […]” for “(OD490nm=0.5-1.5).”

Compound	% Inhibition of growth [1]	toxicity to fibroblasts [1]	antitumor activity [2]
CC(=O)OCC#CCN1CCOCC1 [L2, N-(4-morpholino-2-butynyl)acetate]	18%	low toxicity to fibroblasts	highest antitumor activity
O=C(OCC#CCN1CCOCC1)c1ccccc1 [L4, N-(4-morpholino-2-butynyl)benzoate]	34.2%		
O=COCC#CCN1CCOCC1 [L6, N-(4-morpholino-2-butynyl)formate]	37.4%		
CCN(CC)CC#CCOC(C)=O [L9, N-[4-(N,N-diethylamino)-2-butynyl]acetate]	5.4%		
CC(=O)OCC#CCN(c1ccccc1)c1ccccc1 [L12, N-[4-(N,N-diphenylamino)-2-butynyl]acetate]	−7.6%		
CC(=O)OCC#CCN1CCSCC1 [L13, N-(4-thiomorpholino-2-butynyl)acetate]	19%		
CCC(=O)OCC#CCN1CCOCC1 [L15, N-(4-morpholino-2-butynyl)propionate]	13%		
CC(C)(C)C(=O)OCC#CCN1CCOCC1 [L18, N-(4-morpholino-2-butynyl)pivalate]	7%	low toxicity to fibroblasts	highest antitumor activity
